Data reported in patent publication US11753445B2, “Therapeutic peptides” (COHBAR, INC., priority 2016, dated 2023).

Key:
[1] = Stability in mouse plasma, peptides 100 uM (Example 14); type: in vitro ADME; details: mouse plasma 37° C., peptide 100 uM; for remaining at 0.25 h, 100 uM / remaining at 0.5 h, 100 uM / remaining at 1 h, 100 uM / remaining at 2 h, 100 uM / remaining at 3 h, 100 uM: pooled mouse plasma; for remaining at 0.25 h, 100 uM: 15 min, read-out: % Remaining at Each Time Point: 15 min; for remaining at 0.5 h, 100 uM: 30 min, read-out: % Remaining at Each Time Point: 30 min; for remaining at 1 h, 100 uM: 60 min, read-out: % Remaining at Each Time Point: 60 min; for remaining at 2 h, 100 uM: 120 min, read-out: % Remaining at Each Time Point: 120 min; for remaining at 3 h, 100 uM: 180 min, read-out: % Remaining at Each Time Point: 180 min
Procedure: (§1) Peptides (100 uM) were incubated in pooled mouse plasma at 37° C. and samples were removed and immediately analyzed for the concentration of intact peptide by LC/MS/MS over the course of 3 hours. The percent of peptide remaining in plasma at each time point was calculated relative to the initial peak area (Table 12).

[2] = test system: 3T3-L1 Adipocytes; assay: Free fatty acid levels in cultured mouse 3T3-L1 adipocytes, forskolin stimulated (Example 3); type: cell-based; details: forskolin 1 μM; for Free Fatty Acid Levels in 3T3-L1 Adipocytes Expressed as a Percent of Forskolin Control: Percent of Control Value: test peptides 25 μM
Procedure: Mouse 3T3-L1 cells were seeded at 1,000-20,000 cells per well on 96-well, 48-well, or 24-well plates in Pre-adipocyte Medium (Zen-Bio, Durham, N.C.) and grown to confluence at 37° C. in a humidified atmosphere of 5% CO2/95% air. Two days after confluence, cells were placed in Adipocyte Differentiation Medium (Zen-Bio, Durham, N.C.) and cultured for three additional days at 37° C. in a humidified atmosphere of 5% CO2/95% air. The culture media was then replaced with Adipocyte Maintenance Medium (Zen-Bio) and the cells were maintained for an additional 9-14 days at 37° C. in a humidified atmosphere of 5% CO2/95% air with partial medium replacement every other day. Following 12-17 days of differentiation, test peptides were added at a final concentration of 25 μM and incubated for 18-20 hours in Adipocyte Maintenance Medium at 37° C. in a humidified atmosphere of 5% CO2/95%. After 18-20 hours, the media was exchanged with fresh Adipocyte Maintenance Medium containing test peptides and incubated for 1 h at 37° C. in a humidified atmosphere of 5% CO2/95%. After 1 h media was exchanged with Assay Buffer (Zen-Bio) containing forskolin (1 μM) (added to all samples except untreated controls) and test peptides. Cells were incubated for a further 3 hours at 37° C. in a humidified atmosphere of 5% CO2/95%. Free fatty acid concentrations in the media were determined using a Free Fatty Acid Assay Kit (Zen-Bio) according to the manufacturer's instructions using a plate reader (540 nm). Absorbance values were corrected for untreated background and expressed relative to forskolin treated cells. Treatment with forskolin (1 μM) alone was used as the free fatty acid level stimulatory control. The relative standard deviation of the forskolin control was <10%. […] Free fatty acid levels for insulin (100 nM) treatment were <9% of the forskolin control value.

[3] = Stability in human plasma (Example 16); type: in vitro ADME; details: Human plasma 37° C., peptide 10 uM; for remaining at 1 h, 10 uM / remaining at 2 h, 10 uM / remaining at 3 h, 10 uM: pooled human plasma; for remaining at 1 h, 10 uM: 60 min, read-out: % Remaining at Each Time Point: 60 min; for remaining at 2 h, 10 uM: 120 min, read-out: % Remaining at Each Time Point: 120 min; for remaining at 3 h, 10 uM: 180 min, read-out: % Remaining at Each Time Point: 180 min
Procedure: as §1, with “(10” for “(100”, “mouse or human” for “mouse”, “14).” for “12).”

[4] = Stability in mouse plasma, peptides 10 uM (Example 15); type: in vitro ADME; details: mouse plasma 37° C., peptide 10 uM; for remaining at 0.25 h, 10 uM / remaining at 0.5 h, 10 uM / remaining at 1 h, 10 uM / remaining at 2 h, 10 uM / remaining at 3 h, 10 uM: pooled mouse plasma; for remaining at 0.25 h, 10 uM: 15 min, read-out: % Remaining at Each Time Point: 15 min; for remaining at 0.5 h, 10 uM: 30 min, read-out: % Remaining at Each Time Point: 30 min; for remaining at 1 h, 10 uM: 60 min, read-out: % Remaining at Each Time Point: 60 min; for remaining at 2 h, 10 uM: 120 min, read-out: % Remaining at Each Time Point: 120 min; for remaining at 3 h, 10 uM: 180 min, read-out: % Remaining at Each Time Point: 180 min
Procedure: as §1, with “(10” for “(100”, “13).” for “12).”

[5] = Stability in monkey plasma (Example 16); type: in vitro ADME; details: Monkey plasma 37° C., peptide 10 uM; for remaining at 1 h, 10 uM: 60 min, read-out: % Remaining at Each Time Point: 60 min; for remaining at 2 h, 10 uM: 120 min, read-out: % Remaining at Each Time Point: 120 min; for remaining at 3 h, 10 uM: 180 min, read-out: % Remaining at Each Time Point: 180 min
[6] = test system: 3T3-L1 Adipocytes; assay: Free fatty acid levels in cultured mouse 3T3-L1 adipocytes, isoproterenol stimulated (Example 17); type: cell-based; details: insulin 100 nM; 3T3-L1 adipocytes; isoproterenol 1 nM
In short: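 Differentiated 3T3-L1 adipocytes (12-17 days) given test peptides at 25-50 μM for 18-20 h, then 3 h with peptides plus 1 nM isoproterenol at 37 °C. Medium free fatty acids read colorimetrically at 540 nm, background-corrected and expressed relative to isoproterenol-only cells.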

With H-MRWQEMGYIFYPRKLA-OH [compound 21] the “% Remaining at Each Time Point: 0 min” value [1] was 100%, the remaining at 0.25 h, 100 uM [1] was 29.9% and the remaining at 0.5 h, 100 uM [1] was 31%. For the same substance, the remaining at 1 h, 100 uM [1] was 21.5%, the remaining at 2 h, 100 uM [1] was 6.41% and the remaining at 3 h, 100 uM [1] was 2.13%. The “Free Fatty Acid Levels in 3T3-L1 Adipocytes Expressed as a Percent of Forskolin Control: Percent of Control Value” [2] was 56.0%.

With H-MRWQEMGYIFYPRKLR-OH [compound 2] the “% Remaining at Each Time Point: 0 min” value [1] was 100%, the remaining at 0.25 h, 100 uM [1] was 32% and the remaining at 0.5 h, 100 uM [1] was 14.8%. The remaining at 1 h, 100 uM [1] was 7.58%, the remaining at 2 h, 100 uM [1] was 4.78% and the remaining at 3 h, 100 uM [1] was 1.21%. The “% Remaining at Each Time Point: 0 min” value [3] was 100%, the remaining at 1 h, 10 uM [3] was 56.3% and the remaining at 2 h, 10 uM [3] was 44.7%. For the same substance, the remaining at 3 h, 10 uM [3] was 38.4%, the “Free Fatty Acid Levels in 3T3-L1 Adipocytes Expressed as a Percent of Forskolin Control: Percent of Control Value” [2] was 59.2% and the “% Remaining at Each Time Point: 0 min” value [4] was 100%. The remaining at 0.25 h, 10 uM [4] was 78.3%, the remaining at 0.5 h, 10 uM [4] was 38.9% and the remaining at 1 h, 10 uM [4] was 9.6%. The remaining at 2 h, 10 uM [4] was 0.8%, the remaining at 3 h, 10 uM [4] was 0.4% and the “% Remaining at Each Time Point: 0 min” value [5] was 100%. It also gave a remaining at 1 h, 10 uM [5] of 72.8%, a remaining at 2 h, 10 uM [5] of 39.8% and a remaining at 3 h, 10 uM [5] of 23.4%.

With H-MRWQEMGYIFYPRNLR-OH [compound 213] the “% Remaining at Each Time Point: 0 min” value [1] was 100%, the remaining at 0.25 h, 100 uM [1] was 41% and the remaining at 0.5 h, 100 uM [1] was 29.4%. The remaining at 1 h, 100 uM [1] was 20.5%, the remaining at 2 h, 100 uM [1] was 10% and the remaining at 3 h, 100 uM [1] was 7.45%. For the same substance, the “Free Fatty Acid Levels in 3T3-L1 Adipocytes Expressed as a Percent of Forskolin Control: Percent of Control Value” [2] was 36.0%.

With H-MRWQEMNYIFYPR-OH [compound 208] the “% Remaining at Each Time Point: 0 min” value [1] was 100%, the remaining at 0.25 h, 100 uM [1] was 63.3% and the remaining at 0.5 h, 100 uM [1] was 53.1%. The remaining at 1 h, 100 uM [1] was 48.9%, the remaining at 2 h, 100 uM [1] was 45.3% and the remaining at 3 h, 100 uM [1] was 47.7%. The “% Remaining at Each Time Point: 0 min” value [3] was 100%, the remaining at 1 h, 10 uM [3] was 105% and the remaining at 2 h, 10 uM [3] was 86.6%. The remaining at 3 h, 10 uM [3] was 85.4%, the “Free Fatty Acid Levels in 3T3-L1 Adipocytes Expressed as a Percent of Forskolin Control: Percent of Control Value” [2] was 62.4% and the “% Remaining at Each Time Point: 0 min” value [4] was 100%. For the same substance, the remaining at 0.25 h, 10 uM [4] was 77%, the remaining at 0.5 h, 10 uM [4] was 51.8% and the remaining at 1 h, 10 uM [4] was 21%. The remaining at 2 h, 10 uM [4] was 3.94%, the remaining at 3 h, 10 uM [4] was 1.09% and the “% Remaining at Each Time Point: 0 min” value [5] was 100%. For the same substance, the remaining at 1 h, 10 uM [5] was 106%, the remaining at 2 h, 10 uM [5] was 89% and the remaining at 3 h, 10 uM [5] was 68%.

For H-MRWQEMQYIFYPRALR-OH [compound 219], the “% Remaining at Each Time Point: 0 min” value [1] was 100%, the remaining at 0.25 h, 100 uM [1] was 44.5% and the remaining at 0.5 h, 100 uM [1] was 40.9%. The remaining at 1 h, 100 uM [1] was 41.3%, the remaining at 2 h, 100 uM [1] was 19.8% and the remaining at 3 h, 100 uM [1] was 12.2%. For the same substance, the “Free Fatty Acid Levels in 3T3-L1 Adipocytes Expressed as a Percent of Forskolin Control: Percent of Control Value” [2] was 41.5%.

In the case of H-RWQEMNYIFYPR-OH [compound 210], the “% Remaining at Each Time Point: 0 min” value [1] is reported as 100%, the remaining at 0.25 h, 100 uM [1] is reported as 56.2% and the remaining at 0.5 h, 100 uM [1] is reported as 44.8%. The remaining at 1 h, 100 uM [1] was 39.6%, the remaining at 2 h, 100 uM [1] was 34.4% and the remaining at 3 h, 100 uM [1] was 41.4%. The “% Remaining at Each Time Point: 0 min” value [3] was 100%, the remaining at 1 h, 10 uM [3] was 106% and the remaining at 2 h, 10 uM [3] was 90.8%. For the same substance, the remaining at 3 h, 10 uM [3] was 95.8%, the “Free Fatty Acid Levels in 3T3-L1 Adipocytes Expressed as a Percent of Forskolin Control: Percent of Control Value” [2] was 29.2% and the “% Remaining at Each Time Point: 0 min” value [4] was 100%. For the same substance, the remaining at 0.25 h, 10 uM [4] was 85.7%, the remaining at 0.5 h, 10 uM [4] was 79.5% and the remaining at 1 h, 10 uM [4] was 61.9%. The remaining at 2 h, 10 uM [4] was 35.4%, the remaining at 3 h, 10 uM [4] was 23% and the “% Remaining at Each Time Point: 0 min” value [5] was 100%. It also gave a remaining at 1 h, 10 uM [5] of 105%, a remaining at 2 h, 10 uM [5] of 87.9% and a remaining at 3 h, 10 uM [5] of 77.9%.

With H-RWQEMQYIFYPR-OH [compound 211] the “Free Fatty Acid Levels in 3T3-L1 Adipocytes Expressed as a Percent of Forskolin Control: Percent of Control Value” [2] was 33.7%, the “% Remaining at Each Time Point: 0 min” value [4] was 100% and the remaining at 0.25 h, 10 uM [4] was 85.2%. For the same substance, the remaining at 0.5 h, 10 uM [4] was 72.8%, the remaining at 1 h, 10 uM [4] was 52.3% and the remaining at 2 h, 10 uM [4] was 30.3%. It also gave a remaining at 3 h, 10 uM [4] of 17.9%.

For Insulin [reference compound], the “Free fatty acid levels, % of the isoproterenol control value” [6] was under 5% and the “Free fatty acid levels, % of the forskolin control value” ([2]; insulin 100 nM, 3T3-L1 adipocytes) was under 9%.
